These results are taken from PMC11240924, “Isolation, Identification, and Biological Activities of a New Chlorin e6 Derivative” (International Journal of Molecular Sciences, 2024).

Molecules are shown by their SMILES. pIC50: −log10 of the molar value.

Data set [1] in a line: MTT cytotoxicity (PDT and dark), RAW264.7 normal cell line. In kind it is cell-based, Murine. The following applies: mouse, RAW264.7 cells (normal macrophage), RAW264.7 normal macrophage. The text has this: (§1) B16F10 (KCLB80008), MIA PaCa-2 (KCLB21420), PANC-1 (KCLB21469), HT-29 (KCLB30038), AsPC-1 (KCLB21682), and Raw 264.7 (KCLB40071) cells were procured from the Korean Cell Line Bank (KCLB, Seoul, Republic of Korea). AsPC-1 and RAW264.7 were thawed and maintained in RPMI-1640 media (Life Technologies corporation, Carlsbad, CA, USA) supplemented with 10% fetal bovine serum (Life Technologies corporation, USA) and 1% penicillin and streptomycin (Life Technologies corporation, USA), while MIA PaCa-2, PANC-1, HT-29, and B16F10 cell lines were cultured in DMEM (Life technologies corporation, USA) containing 10% fetal bovine serum and 1% penicillin and streptomycin. All the cells were cultured at 37 °C in a 5% CO2 incubator.
(§2) After seeding B16F10 or MIA PaCa-2 at a density of 5 × 10^3 cells/well and PANC-1, HT-29, or AsPC-1 at a density of 1 × 10^4 cells/well in 96-well plates, the cells were incubated overnight at 37 °C in a CO2 incubator. The cells were exposed to different doses of either chlorin e6 or rhodin g7 7^1-ethyl ester (0, 2.5, 5, 10, 20, 40, and 80 µM) for 3 h. After the incubation, the cells were either subjected to a 660 nm laser with a power density of 50 mW (0.5 J/cm^2) or not and were further incubated for 24 h at 37 °C. Moreover, the MTT assay was used to analyze the cell viability. The absorbance values of 540 nm were then measured using a microplate reader (Multiskan GO, Thermo Fisher Scientific, Oy, Ratastie 2, FI-01620 Vantaa, Finland).

Data set [2] can be described thus: MTT cytotoxicity (PDT and dark), PANC-1. In kind it is cell-based, Human. The conditions noted are these: human, PANC-1 cells, no illumination, MTT after 24 h.
Excerpt: as §1, §2

Data set [3] has as its system PANC-1. Nature of the data set: MTT cytotoxicity (PDT and dark), PANC-1. The format is cell-based, Human. The following applies: Homo sapiens, light or radiation study, 3 h exposure, 660 nm laser 0.5 J/cm^2, MTT after 24 h.
Excerpt: as §1, §2

Data set [4] in a line: MTT cytotoxicity (PDT and dark), MIA PaCa-2. The format is cell-based, Human. The conditions noted are these: human, MIA PaCa-2 cells, no illumination, MTT after 24 h.
Excerpt: as §1, §2

Data set [5] has as its system MIA PaCa-2. Nature of the data set: MTT cytotoxicity (PDT and dark), MIA PaCa-2. The format is cell-based, Human. The conditions noted are these: Homo sapiens, light or radiation study, 3 h exposure, 660 nm laser 0.5 J/cm^2, MTT after 24 h.
Excerpt: as §1, §2

The nature of data set [6]: MTT cytotoxicity (PDT and dark), B16F10. The format is cell-based, Murine. The following applies: mouse, B16F10 cells, no illumination, MTT after 24 h.
Excerpt: as §1, §2

Data set [7] concerns B16F10. The experiment in a line: MTT cytotoxicity (PDT and dark), B16F10. In kind it is cell-based, Murine. The conditions noted are these: Mus musculus, B16-F10, light or radiation study, 3 h exposure, 660 nm laser 0.5 J/cm^2, MTT after 24 h.
Excerpt: as §1, §2

Data set [8] has as its system ICR mice. On the set-up: method as in PMID 30609768. The conditions noted are these: chlorin e6, greatly declined at 24 h; cited from earlier work.
Data set [9] can be described thus: MTT cytotoxicity (PDT and dark), AsPC-1. The format is cell-based, Human. The following applies: human, AsPC-1 cells, no illumination, MTT after 24 h.
Excerpt: as §1, §2

For data set [10], the system named is AsPC-1. Nature of the data set: MTT cytotoxicity (PDT and dark), AsPC-1. The format is cell-based, Human. The following applies: Homo sapiens, ASPC1, light or radiation study, 3 h exposure, 660 nm laser 0.5 J/cm^2, MTT after 24 h.
Excerpt: as §1, §2

Data set [11] concerns MIA PaCa-2 cells. Nature of the data set: Cellular uptake (plate reader and FOBI), MIA PaCa-2. The following applies: 3 h; for fluorescence intensity of treated cells compared to control (uptake): MIA PaCa-2, 100 μΜ. In kind it is cell-based, Human. As for the experimental part: A quantitly of 5 × 10^5 of MIA PaCa-2 and 2 × 10^5 of BV2 cells per well were seeded in a 6-well plate and were treated with or without chlorin e6 or rhodin g7 7^1-ethyl ester (10 and 100 μΜ). After 3 h, the cells were harvested and washed twice with 1 × phosphate buffered saline (DPBS) to remove the remaining chlorin e6 or rhodin g7 7^1-ethyl ester from the culture media and cell surfaces. The cells from each well were resuspended in 1 mL of 1 × DPBS and measured using FOBI and a plate reader. chlorin e6 or rhodin g7 7^1-ethyl ester-treated cells were divided into triplicate wells of a black-walled 96-well plate, each containing 100 µL. The measurement was taken immediately after aliquoting using a Spark Multimode Microplate Reader (Tecan Trading AG, Männedorf, Switzerland) for spectroscopy. The fluorescence was measured using excitation and emission peaks of 405 nm and 500–800 nm. For the FOBI analysis, 700 µL of chlorin e6 or rhodin g7 7^1-ethyl ester-treated cells was added to the e-tubes, and bioimaging was performed immediately using the fluorescence-labeled organism bioimaging instrument (FOBI) system (Cellgentek, Daejeon, Republic of Korea). Each image was exposed for 0.3 s, with a 405 nm wavelength LED, and an emmission light of 502 nm. The results were further quantitatively measured using the “NEOimage FOBI” software.

In data set [12] the test system is ICR mice. Nature of the data set: Biodistribution, ex vivo organ fluorescence. The format is in vivo. The following applies: 2.5 mg/kg intravenous. As to the method:
The animal study was approved by the Institutional Animal Care and Use Committee of the Dongsung Cancer Center under protocol IACUC # ds0022010107-2. The experiments were carried out in compliance with the ARRIVE guidelines. Male ICR mice (4 weeks old, OrientBio, Seongnam City, Republic of Korea) were used for the biodistribution study. The biodistribution analysis for rhodin g7 7^1-ethyl ester was calculated using tissue fluorescence. ICR mice (n = 7) were injected with or without rhodin g7 7^1-ethyl ester (2.5 mg/kg) intravenously. After the administration of rhodin g7 7^1-ethyl ester for 0, 24, 48, 72, 96, and 120 h, the mice were sacrificed, and their organs (kidney, spleen, heart, lungs, liver, skin, and pancreas) were resected. Fluorescence imaging was used to determine the ex vivo organ distributions of rhodin g7 7^1-ethyl ester utilizing the FOBI imaging system (Neo-Science, Suwon, Republic of Korea). For the rhodin g7 7^1-ethyl ester extraction, the organ tissues were then mixed with lysis buffer, homogenized in a tissue homogenizer, and centrifuged at 9000 rpm for 15 min. The rhodin g7 7^1-ethyl ester content in the supernatant was then evaluated using a Spark Multimode Microplate Reader (Tecan Trading AG, Männedorf, Switzerland) spectrophotometrically at 660 nm. The fluorescence intensity was adjusted to the tissue weight.

[13] abbreviates: 660 nm laser 0.5 J/cm^2, MTT after 24 h, read-out: IC50, PDT cytotoxicity.
Setting [14] is: no illumination, MTT after 24 h, read-out: IC50, dark cytotoxicity.

As for `C=Cc1c(C)c2cc3nc(c(CC(=O)O)c4[nH]c(cc5nc(cc1[nH]2)C(C)=C5CC)c(C)c4C(=O)O)[C@@H](CCC(=O)O)[C@@H]3C` [chlorin e6], the pIC50 is 4.34 in data set [1] (setting [13]); 3.34 in data set [1] (setting [14]); 3.52 in data set [2]; 4.75 in [3]; 3.37 in data set [4]; 4.63 in data set [5]. For the same molecule, the pIC50 in data set [6] was 3.26; in data set [7], 4.47; in [9] it was 3.61; in [10], 4.52. Further, the “time of maximum fluorescence intensity post injection” value in [8] was 0 h. Besides, in data set [11], the “fluorescence intensity of treated cells compared to control (uptake)” value is “significant increase in fluorescence intensity”.

Consider `C=Cc1c(C)c2cc3nc(c(CC(=O)O)c4[nH]c(cc5nc(cc1[nH]2)C(C(=O)OCC)=C5CC)c(C)c4C(=O)O)[C@@H](CCC(=O)O)[C@@H]3C` [rhodin g7 7^1-ethyl ester], for which the pIC50 in [1] (setting [13]) is 4.26; in data set [1] (setting [14]), 3.33; in data set [2], 3.55; in data set [3] it was 5.08; in data set [4], 3.79; in data set [5], 5.12. For the same molecule, the pIC50 in [6] was 3.58; in data set [7], 4.91; in data set [9] it was 3.40; in [10], 4.31. Also, in data set [12] (0-120 h), the “time of peak fluorescence intensity post injection, all organs” value turned out to be 0 h. Further, the “organ with greatest signal intensity (predominant accumulation)” value in [12] (ex vivo FLI of excised organs) is “liver”. Further, the “fluorescence intensity of treated cells compared to control (uptake)” value in data set [11] was “significant increase in fluorescence intensity”. For the same molecule, the “fluorescence intensity relative to chlorin e6 (uptake)” value in data set [11] (MIA PaCa-2, FOBI system, 10 μΜ) was 1.02 times; in data set [11] (MIA PaCa-2, FOBI system, 100 μΜ) it was 1.3 times; in data set [11] (MIA PaCa-2, plate reader, 10 μΜ) it was 3 times; in [11] (MIA PaCa-2, plate reader, 100 μΜ), 1.4 times.
